“And” between values parts separate entries of the source, which are not always exact repeats. Equal values may be shown once.
Columns and labels:
normal mouse splenocytes = assay: Cytokine release from murine splenocytes; format: cell-based, C57BL6 mice; conditions: 24 hours culture with test compound
Method: The ability of compounds to stimulate cytokine release from splenocytes can be assessed in a mouse model. Spleen cells harvested from C57BL6 mice are cultured for 24 hours in RPMI 1640 cell culture medium containing 5% FBS, 1 mM sodium pyruvate, 2 mM L-glutamine, 100 U/ml penicillin/streptomycin and 50 μM beta-mercaptoethanol, various concentrations of test compound for 20-24 hours, after which the cell culture supernatant is tested for the presence of cytokines.
Spleen cells harvested from mice were cultured for 24 house with test compound and the supernatant was tested for release of cytokines.

THP-1 cells = assay: TNF-alpha promoter secreted alkaline phosphatase (TNF-PLAP) reporter in THP-1 cells; format: cell-based, human; conditions: absence and presence of 10% serum; FIG. 3
Method: Similar results can be obtained when compounds of the invention are tested in a cell-culture model. In this assay, compounds of the invention are tested for their ability to stimulate secretion of alkaline phosphatase from THP-1 cells that have been transfected with the gene for secreted alkaline phosphatase under the control of the TNF-alpha promoter, as described in detail in Goto et al., Molecular Pharmacology 49; 860-873 (1996). In this assay, however, the effects of removing serum^1—a condition that may more-likely mimic a subcutaneous environment—can be evaluated. As shown in FIG. 2 and described in Table 1, results from these assays indicate that compounds of the invention stimulate induction of genes under the control of the TNF-alpha promoter when added to cells in the absence as well as the presence of serum. ^1 This is important to determine if serum components such as lipopolysaccharide binding protein are necessary for drug activity.

[1] = tested on: mouse macrophage line RAW 264.7; assay: Tolerization to TLR family ligands, TNF-alpha release; format: cell-based; conditions: pretreated 24 hours at 0.1 μg/mL
Method: Cells of the mouse macrophage line RAW 264.7 were plated in RPMI 1640 complete culture medium (10% fetal bovine serum, 1 mM sodium pyruvate, 2 mM L-glutamine, 100 U/mL penicillin/streptomycin and 50 μM β-mercaptoethanol). Cells were treated for 24 hours with the TLR4 ligand ER-803022 at 0.1 μg/mL by addition of a concentrated stock solution. Negative control cells were treated with an equivalent volume of PBS. After 24 hours, cells were washed twice in RPMI 1640 complete medium and incubated in medium alone for 3 hours. Cultures were then restimulated with the following synthetic TLR ligands: lipopeptide (S-lipo, a ligand for TLR2) at 0.1 μg/mL, ER-803022 at 0.1 μg/mL, a mouse CpG oligonucleotide of the sequence […] (a ligand of murine TLR9) at 0.5 μg/mL, or PBS. Supernatants were taken at 3 and 4 hours and cytokine levels were determined by ELISA.

[2] = tested on: B16F10 murine melanoma cells; assay: Survival of melanoma-bearing mice, i.p. compound with s.c. B16 GM-CSF cell vaccine; format: in vivo, B6 mice (C57BL6 mice); conditions: i.p. Compound 804057 combined with s.c. B16 GM-CSF cells, three days after tumor inoculation; FIG. 7
Excerpt: To determine the effect of Compound 804057 when administered intraperitoneally with a cancer vaccine, e.g., granulocyte-macrophage colony stimulating factor (GM-CSF) secreting tumor cells, a mouse model using melanoma cells was used. Compound 804057 is a TLR-4 (Toll-like receptor-4) agonist. B6 mice (C57BL6 mice) were engrafted subcutaneously with […] murine melanoma cells. Three days after tumor cell inoculation, the mice were either (1) vaccinated subcutaneously (s.c.) with 1×10^6 B16F10 tumor cells that were genetically modified to stably express and secrete murine GM-CSF (B16-GM-CSF cells); (2) vaccinated intraperitoneally (i.p.) with Compound 804057; or (3) were treated with a combination of s.c. GM-CSF cell vaccination and i.p. Compound 804057 (the GM-CSF cell vaccination and Compound 804057 vaccination were administered at separate sites in the mice). In these experiments, the GM-CSF cells were inactivated by gamma-irradiation prior to inoculation. Survival of the animals was monitored.

Human Whole Blood = assay: Cytokine release in human whole blood (ELISA); format: cell-based
Method: The most readily available human system to test compound activity on monocytes/macrophages is in whole blood. Various concentrations of compounds of the invention were added as 10× stocks in 50 μl of Ca^++, Mg^++-free Hank's balanced salt solution (HBSS) followed by 50 μl of HBSS into 400 μl of heparinized whole blood obtained from normal volunteers (18-51 years old; 110-230 lb.) into the wells of plastic assay plates, for a total volume of 500 μl/well (final concentration of whole blood was 80%). After a 3-hour incubation with gentle shaking at 37° C. in a 5% CO2 atmosphere, the assay plates were centrifuged at 1000×g for 10 min. at 4° C. and plasma was drawn off and frozen at −80° C. Plasma samples were analyzed for TNF-alpha, IL-10, and IL-12 by ELISA (Genzyme Corp., Cambridge, Mass.). Each assay point was tested in triplicate.
This stimulatory activity can be compared to that of 10 ng/ml endotoxin (or LPS) present in similar incubations in the same assay.

Whole blood = assay: IL-12p70 production in whole blood, 24 hrs (Table 2); format: cell-based, human; conditions: 50 nM
[3] = tested on: B16F10 murine melanoma cells; assay: Survival of melanoma-bearing mice, intratumoral GM-CSF cells with compound; format: in vivo, B6 mice; conditions: about 3-10 μg, combined with GM-CSF cells, vs untreated or GM-CSF cells alone, FIG. 8
Method: The effect of Compound 804057 on treatment of B6 mice that were engrafted subcutaneously with 1×10^6 syngeneic B16F10 murine melanoma cells was examined. When tumors became palpable, the mice were injected intratumorally with GM-CSF cells alone, or in combination with Compound 804057 (about 3-10 μg). Survival of the animals was monitored.

Adherent PBMC = assay: Cytokine production by stimulated adherent human PBMC; format: cell-based; conditions: 50 nM
Nonadherent PBMC = assay: Cytokine production by stimulated nonadherent human PBMC; format: cell-based; conditions: 50 nM, 24 hrs
EGFRvIII peptide = assay: EGFRvIII peptide-specific antibody titers after immunization (ELISA); format: in vivo, C57/BL6J mice; conditions: s.c. with 25 μg peptide-KLH, 804057 3 μg, GM-CSF 5 μg; for Antibody titers to EGFRvIII peptide, IgG1, individual animals / Antibody titers to EGFRvIII peptide, IgG2a, individual animals: titer = last serum dilution 0.25 OD above background
Excerpt: To determine whether an adjuvant can enhance the effect of an oncology antigen (i.e., an antigen that can be used to vaccinate a subject individual against a cancer), C57/BL6J mice were immunized subcutaneously with a tumor-associated peptide, LEEKKGNYVVTDHC (SEQ ID NO:2) (derived from a mutant form of EGFR, […]) conjugated to the protein carrier keyhole limpet hemocyanin (KLH), with or without Compound 804057 or murine GM-CSF, a cytokine used in cancer vaccine trials to boost immune response. Compound 804057 was dosed at 3 μg, GM-CSF at 5 μg and the peptide-KLH conjugate at 25 μg per dose. Mice were immunized three times at intervals of three weeks. Serum was prepared from mice two weeks after each immunization and tested for […] peptide-specific antibodies using ELISA on plates coated with EGFRvIII peptide conjugated to bovine serum albumin. The results in Table 3 are presented as titers from individual animals. The titer is defined as the last serum dilution at which a signal at 0.25 OD units above background was observed.

MUC1 IL-10−/− mice = assay: MUC-1 vaccine with adjuvant in mice that develop IBD and colon adenocarcinoma; format: in vivo, mouse
Method: To test the effects of a MUC-1 vaccine with Compound 804057 adjuvant for treating inflammatory bowel disease (IBD) and subsequent development of colon adenocarcinoma, an engineered mouse strain that lacks the IL-10 gene and expresses transgenic human MUC1 was used. Such mice spontaneously develop intestinal inflammation resembling IBD followed by colon adenocarcinoma. […] 4, 2006.
In these experiments, mice were immunized intranasally with […] of Tn MUC100mer ([…])×5, SEQ ID NO:1) and […] of Compound 804057. Animals were vaccinated at about 4.5 weeks and boosted at about 6.5 weeks and 9 weeks.

## CCCCCC/C=C\CCCC(=O)O[C@H](CCCCCCC)CCOCC(COP(=O)([O-])OCCNC(=O)NCCOP(=O)([O-])OCC(COCC[C@@H](CCCCCCC)OC(=O)CCC/C=C\CCCCCC)NC(=O)CC(=O)CCCCCCCCCCC)NC(=O)CC(=O)CCCCCCCCCCC.[Na+].[Na+] (stereo partly shown) [ER 111232]
Normal mouse splenocytes
  IL-10 release from splenocytes: stimulated
  interferon-gamma release from splenocytes: stimulated
THP-1 cells
  stimulation of alkaline phosphatase expression from TNF promoter reporter (TNF-PLAP): stimulation of alkaline phosphatase expression

## CCCCCCCCCCCC(=O)CC(=O)NC(COCC[C@@H](CCCCCCC)OC(=O)CCCCCCCCCCC)COP(=O)([O-])OCCNC(=O)NCCOP(=O)([O-])OCC(COCC[C@@H](CCCCCCC)OC(=O)CCCCCCCCCCC)NC(=O)CC(=O)CCCCCCCCCCC.[Na+].[Na+] (stereo partly shown) [ER 112066]
Normal mouse splenocytes
  IL-10 release from splenocytes: stimulation of IL-10 release
  interferon-gamma release from splenocytes: stimulation of interferon-gamma release
THP-1 cells
  stimulation of alkaline phosphatase expression from TNF promoter reporter (TNF-PLAP): stimulation of alkaline phosphatase expression

## CCCCCCCCCCCCCC(=O)N[C@H](COCC[C@@H](CCCCCCC)OC(=O)CCCCCCCCCCC)COP(=O)([O-])OCCNC(=O)NCCOP(=O)([O-])OC[C@@H](COCC[C@@H](CCCCCCC)OC(=O)CCCCCCCCCCC)NC(=O)CCCCCCCCCCCCC.[Na+].[Na+] [ER 803022]
[1]; restimulated with CpG 0.5 μg/mL
  TNF-alpha release in response to CpG oligonucleotide, a TLR9 ligand: diminished release of TNF-alpha
[1]; restimulated with ER-803022 0.1 μg/mL, vs not pretreated
  TNF-alpha release upon subsequent exposure to ER803022 (TLR4 ligand): released less TNF-alpha
[1]; restimulated with S-lipo 0.1 μg/mL
  TNF-alpha release in response to TLR2 ligand S-lipoprotein: diminished release of TNF-alpha

## CCCCCCCCCCCC(=O)CC(=O)N[C@H](COCC[C@@H](CCCCCCC)OC(=O)CCCCCCCCCCC)COP(=O)([O-])OCCNC(=O)NCCOP(=O)([O-])OC[C@@H](COCC[C@@H](CCCCCCC)OC(=O)CCCCCCCCCCC)NC(=O)CC(=O)CCCCCCCCCCC.[Na+].[Na+] [ER 804057]
[2]
  therapeutic efficacy (survival) of tumor-bearing mice: enhanced the therapeutic efficacy of the GM-CSF cells
Human Whole Blood; FIG. 2
  IL-10 release from blood-borne cells: stimulate blood-borne cells to release IL-10
  IL-12 release from blood-borne cells: stimulate blood-borne cells to release IL-12
Human Whole Blood; whole blood, vs. % of LPS at 10 ng/ml, read-out: WB ED50 vs LPS@ 10 ng/ml
  EC50: 8 nM
Whole blood
  Cytokine Production IL-12p70: 1332 pg/mL
[3]
  survival of tumor-bearing mice: increased survival
Adherent PBMC; 4 hrs
  Cytokine Production IL-1α: 8 pg/mL
  Cytokine Production IL-1β: 55 pg/mL
  Cytokine Production IL-6: 551 pg/mL
  Cytokine Production Interferon-α: 345 pg/mL
  Cytokine Production TNF-α: 3627 pg/mL
Adherent PBMC; 24 hrs
  Cytokine Production IL-10: 175 pg/mL
Adherent PBMC; 48 hrs
  Cytokine Production Interferon-α: 175 pg/mL
Nonadherent PBMC
  Cytokine Production GM-CSF: 353 pg/mL
  Cytokine Production IL-1α: 108 pg/mL
  Cytokine Production IL-1β: 431 pg/mL
  Cytokine Production Interferon-γ: 331 pg/mL
EGFRvIII peptide
  Geometric mean titer, IgG1: 20182
  Antibody titers to EGFRvIII peptide, IgG1, individual animals: 24000 (6×) and 48000 and 3000
  Antibody titers to EGFRvIII peptide, IgG2a, individual animals: 6000 (2×) and 12000 (3×) and 24000 and 48000 and 1500
MUC1 IL-10−/− mice; added to the MUC-1 vaccine
  appearance of histologically detected tumors: suppresses the appearance of histologically detected tumors
  progression to rectal prolapse associated with IBD: can slow the progression to rectal prolapse associated with IBD
MUC1 IL-10−/− mice; age of treated mice, Table 5
  Age (weeks): 12.5-18 weeks
MUC1 IL-10−/− mice; intranasal with MUC-1 vaccine (Tn MUC100mer)
  development of colon cancer: did not develop colon cancer
MUC1 IL-10−/− mice; intranasal with MUC-1 vaccine (Tn MUC100mer), FIG. 9
  onset of IBD: delayed onset of IBD or did not develop IBD
MUC1 IL-10−/− mice; intranasal with MUC-1 vaccine (Tn MUC100mer), FIG. 10
  survival: improved survival
MUC1 IL-10−/− mice; mice with tumors / mice treated
  Colon tumors: 3/3

B1: GM-CSF: murine GM-CSF, a cytokine used in cancer vaccine trials to boost immune response (protein, UniProt P01587 18-141, looked up)
Granulocyte-macrophage …: APTRSPITVTRPWKHVEAIKEALNLLDDMPVTLNEEVEVVSNEFSFKKLTCVQTRLKIFEQGLRGNFTKLKGALNMTASYYQTYCPPTPETDCETQVTTYADFIDSLKTFLTDIPFECKKPGQK
EGFRvIII peptide
  Geometric mean titer, IgG1: 24000
  Geometric mean titer, IgG2a: 3568
  Antibody titers to EGFRvIII peptide, IgG1, individual animals: 12000 (3×) and 24000 (2×) and 48000 (3×)
  Antibody titers to EGFRvIII peptide, IgG2a, individual animals: 3000 (2×) and 6000 (3×) and 24000 and 750 (2×)
